Measurements taken from patent US8937078B2, “Quinazolinones as prolyl hydroxylase inhibitors” (Janssen Pharmaceutica NV, priority 2009, dated 2015).
“Also recorded” adds a separate entry of the source. Each block holds one molecule with its values, some of them ahead of it.

How the values were obtained:
Hep-3B cells = assay: Cellular assay: erythropoietin secretion in Hep-3B cells; type: cell-based, human; details: Homo sapiens, Hep3B, 100 μM compound, 24 hours, percent of EPO secretion relative to assay control compound 7-[(4-Chloro-phenyl)-(5-methyl-isoxazol-3-ylamino)-methyl]-quinolin-8-ol, read-out: Cellular % EPO Stimulation
Method in brief: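 Hep-3B cells in DMEM with 10% FBS, treated 24 h after plating with compounds at 100 μM final for a further 24 h. Secreted EPO in supernatant measured by MSD electrochemiluminescence sandwich immunoassay with anti-EPO detection antibody.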

[1] = Canine study, histological analysis (single dose escalation then repeat dose); type: in vivo; design: key to Histology: Stomach / Histology: Testis/Epididymis / Histology: Bone Marrow / Histology: Lung / Histology: Heart / Histology: Test/Epididymis / Histology: Kidney: NSL: No Significant Lesion; details: oral by stomach tube
Procedure: Various animal models are assessed for histological analysis. In one example, a canine study was used to assess the effect of 1-[6-(2,6-dimethyl-phenoxy)-7-fluoro-4-oxo-3,4-dihydro-quinazolin-2-yl]-1H-pyrazole-4-carboxylic acid when administered orally by stomach tube in a Single Dose Escalation (SDE) phase, and then subsequently for up to 5 days during the Repeat Dose (RD) phase.

human PHD2 (PHD2181-417) = target: T1, human PHD2 (PHD2181-417) (Homo sapiens, UniProt Q9GZT9); assay: PHD enzymatic assay ([14C]-succinic acid production); type: biochemical; details: PHD2181-417, HIF-1α peptide 10 μM, average of results; read-out: Enzyme pIC50 (converted)
T1 construct: Smt (SUMO) tag (cleaved yes); made in house; host or cells: E. coli BL21 (pBAD vector)
Method in brief: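 Activity measured as [14C]-succinic acid formed from [5-14C]-2-oxoglutarate over 10 minutes, with peptide substrate at 10 μM, in Tris-HCl pH 7.5 buffer containing catalase, DTT and ascorbate. Unreacted oxoglutarate removed by DNP derivatisation; supernatant beta-counted.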

T1 sequence (Q9GZT9 181-417): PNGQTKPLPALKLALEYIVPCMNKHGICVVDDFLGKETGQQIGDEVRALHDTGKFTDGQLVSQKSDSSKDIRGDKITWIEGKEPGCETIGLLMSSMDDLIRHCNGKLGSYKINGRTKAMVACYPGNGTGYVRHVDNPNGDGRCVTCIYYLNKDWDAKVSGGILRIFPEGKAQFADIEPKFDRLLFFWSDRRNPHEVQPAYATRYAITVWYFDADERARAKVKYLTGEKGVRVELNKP

Structure (SMILES): Cc1cccc(C)c1Oc1cc2c(=O)[nH]c(-n3cc(C(=O)O)cn3)nc2cc1F [Example 51, 1-[6-(2,6-Dimethyl-phenoxy)-7-fluoro-4-oxo-3,4-dihydro-quinazolin-2-yl]-1H-pyrazole-4-carboxylic acid]
Emax at 100 µM (Hep-3B cells): 100%
Histology: Bone Marrow ([1]; 10 mg/kg/day-1001 (Male)): NSL
Histology: Heart ([1]; 10 mg/kg/day-1001 (Male)): NSL
Histology: Kidney ([1]; 10 mg/kg/day-1001 (Male)): Slight, bilateral, acute multi-focal; also recorded: Slight, pelvic mineral deposition (right
Histology: Liver ([1]; 10 mg/kg/day-1001 (Male)): Slight, acute portal inflammation
Histology: Lung ([1]; 10 mg/kg/day-1001 (Male)): NSL
Histology: Spleen ([1]; 10 mg/kg/day-1001 (Male)): Mild EMH, with mild, increased; also recorded: Slight, intra-macrophage brown pigment
Histology: Stomach ([1]; 10 mg/kg/day-1001 (Male)): NSL
Histology: Testis/Epididymis ([1]; 10 mg/kg/day-1001 (Male)): NSL
Histology: Bone Marrow ([1]; 10 mg/kg/day-1501 (female)): NSL
Histology: Heart ([1]; 10 mg/kg/day-1501 (female)): NSL
Histology: Kidney ([1]; 10 mg/kg/day-1501 (female)): NSL
Histology: Liver ([1]; 10 mg/kg/day-1501 (female)): Slight, acute portal inflammation
Histology: Lung ([1]; 10 mg/kg/day-1501 (female)): NSL
Histology: Spleen ([1]; 10 mg/kg/day-1501 (female)): Mild EMH, with mild, increased; also recorded: Slight, intra-macrophage brown
Histology: Stomach ([1]; 10 mg/kg/day-1501 (female)): NSL
Histology: Bone Marrow ([1]; 45 mg/kg/day-2001 (Male)): BSL
Histology: Heart ([1]; 45 mg/kg/day-2001 (Male)): NSL
Histology: Kidney ([1]; 45 mg/kg/day-2001 (Male)): Slight, bilateral, acute multi-focal; also recorded: Multiple cysts with slight interstitial; also recorded: Slight, renal papillary mineralization
Histology: Liver ([1]; 45 mg/kg/day-2001 (Male)): Mild, acute central-lobular inflammation
Histology: Lung ([1]; 45 mg/kg/day-2001 (Male)): NSL
Histology: Spleen ([1]; 45 mg/kg/day-2001 (Male)): Mild EMH; also recorded: Mild, increased megkaryocytes; also recorded: Slight intra-macrophage brown pigment
Histology: Stomach ([1]; 45 mg/kg/day-2001 (Male)): NSL
Histology: Test/Epididymis ([1]; 45 mg/kg/day-2001 (Male)): NSL
Histology: Bone Marrow ([1]; 45 mg/kg/day-2501(female)): NSL
Histology: Kidney ([1]; 45 mg/kg/day-2501(female)): Slight, bilateral, acute-multi-focal; also recorded: Slight tubular vacuolization
Histology: Liver ([1]; 45 mg/kg/day-2501(female)): Mild bile duct hyperplasia; also recorded: Multifocal portal tract thrombosis; also recorded: Slight, Kupffer cell brown pigment
Histology: Lung ([1]; 45 mg/kg/day-2501(female)): NSL
Histology: Spleen ([1]; 45 mg/kg/day-2501(female)): Mild EMH; also recorded: Mild, increased megkaryocytes; also recorded: Slight intra-macrophage brown
Histology: Stomach ([1]; 45 mg/kg/day-2501(female)): NSL
IC50 (human PHD2 (PHD2181-417)): 25.1 nM

Structure (SMILES): O=C(O)c1cnn(-c2nc3ccc(Oc4cccc(C(F)(F)F)c4F)cc3c(=O)[nH]2)c1 [Example 96, 1-[6-(2-fluoro-3-trifluoromethyl-phenoxy)-4-oxo-3,4-dihydro-quinazolin-2-yl]-1H-pyrazole-4-carboxylic acid]
Emax at 100 µM (Hep-3B cells): 51%
IC50 (human PHD2 (PHD2181-417)): 25.1 nM

Structure (SMILES): COc1ccc(-c2ccc3nc(-n4cc(C(=O)O)cn4)[nH]c(=O)c3c2)cc1 [Example 200, 1-[6-(4-Methoxy-phenyl)-4-oxo-3,4-dihydro-quinazolin-2-yl]-1H-pyrazole-4-carboxylic acid]
Emax at 100 µM (Hep-3B cells): 118%
IC50 (human PHD2 (PHD2181-417)): 15.8 nM

Structure (SMILES): O=C(O)c1cnn(-c2nc3ccc(-c4ccccc4F)cc3c(=O)[nH]2)c1 [Example 195, 1-[6-(2-Fluoro-phenyl)-4-oxo-3,4-dihydro-quinazolin-2-yl]-1H-pyrazole-4-carboxylic acid]
Emax at 100 µM (Hep-3B cells): 100%
IC50 (human PHD2 (PHD2181-417)): 25.1 nM

Structure (SMILES): O=C(O)c1cnn(-c2nc3c(-c4ccccc4)cccc3c(=O)[nH]2)c1 [Example 111, 1-(4-Oxo-8-phenyl-3,4-dihydro-quinazolin-2-yl)-1H-pyrazole-4-carboxylic acid]
Emax at 100 µM (Hep-3B cells): 24%
IC50 (human PHD2 (PHD2181-417)): 126 nM

Structure (SMILES): O=C(O)c1cnn(-c2nc3ccc(Oc4cccc5ccccc45)cc3c(=O)[nH]2)c1 [Example 29, 1-[6-(naphthalen-1-yloxy)-4-oxo-3,4-dihydro-quinazolin-2-yl]-1H-pyrazole-4-carboxylic acid]
Emax at 100 µM (Hep-3B cells): 124%
IC50 (human PHD2 (PHD2181-417)): 25.1 nM

Structure (SMILES): Cc1cccc(C)c1Oc1cc2c(=O)[nH]c(-n3cc(C(=O)O)cn3)nc2cc1Cl [Example 49, 1-[7-Chloro-6-(2,6-dimethyl-phenoxy)-4-oxo-3,4-dihydro-quinazolin-2-yl]-1H-pyrazole-4-carboxylic acid]
Emax at 100 µM (Hep-3B cells): 55%
IC50 (human PHD2 (PHD2181-417)): 31.6 nM

Structure (SMILES): CC(C)(C)c1ccc(S(=O)(=O)c2cc3c(=O)[nH]c(-n4cc(C(=O)O)cn4)nc3cc2Cl)cc1 [Example 72, 1-[6-(4-tert-Butyl-benzenesulfonyl)-7-chloro-4-oxo-3,4-dihydro-quinazolin-2-yl]-1H-pyrazole-4-carboxylic acid]
Emax at 100 µM (Hep-3B cells): 22%
IC50 (human PHD2 (PHD2181-417)): 50.1 nM

The next lines start with results.

IC50 (human PHD2 (PHD2181-417)): 25.1 nM
Structure (SMILES): CCNc1ccc2nc(-n3cc(C(=O)O)cn3)[nH]c(=O)c2c1 [Example 172, 1-(6-Ethylamino-4-oxo-3,4-dihydro-quinazolin-2-yl)-1H-pyrazole-4-carboxylic acid]
Emax at 100 µM (Hep-3B cells): 20%

IC50 (human PHD2 (PHD2181-417)): 15.8 nM
Structure (SMILES): CC(C)c1ccc2nc(-n3cc(C(=O)O)cn3)[nH]c(=O)c2c1 [Example 119, 1-(6-Isopropyl-4-oxo-3,4-dihydro-quinazolin-2-yl)-1H-pyrazole-4-carboxylic acid]
Emax at 100 µM (Hep-3B cells): 115%

IC50 (human PHD2 (PHD2181-417)): 31.6 nM
Structure (SMILES): O=C(O)c1cnn(-c2nc3ccc(-c4ccccc4)cc3c(=O)[nH]2)c1 [Example 106, 1-(4-oxo-6-phenyl-3,4-dihydro-quinazolin-2-yl)-1H-pyrazole-4-carboxylic acid]
Emax at 100 µM (Hep-3B cells): 129%

IC50 (human PHD2 (PHD2181-417)): 158 nM
Structure (SMILES): CC(C)(C)c1cccc2c(=O)[nH]c(-n3cc(C(=O)O)cn3)nc12 [Example 115, 1-(8-tert-Butyl-4-oxo-3,4-dihydro-quinazolin-2-yl)-1H-pyrazole-4-carboxylic acid]
Emax at 100 µM (Hep-3B cells): 27%

IC50 (human PHD2 (PHD2181-417)): 251 nM
Structure (SMILES): O=C(O)c1cnn(-c2nc3c(Cl)cccc3c(=O)[nH]2)c1 [Example 14, 1-(8-Chloro-4-oxo-3,4-dihydro-quinazolin-2-yl)-1H-pyrazole-4-carboxylic acid]
Emax at 100 µM (Hep-3B cells): 8%
